Laboratory results: PubChem BioAssay (NCI)
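Assay format: 96-well plates, 48-hour exposure. GI50: concentration for 50% inhibition of growth. Definition used: TGI = concentration required for complete inhibition of growth.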

How the values were obtained:
Experiment in all cases: NCI-60 cell line screen, 48 h
CCRF-CEM leukemia = tested on: CCRF-CEM leukemia
CAKI-1 renal = tested on: CAKI-1 renal
EKVX NSCLC = tested on: EKVX NSCLC
NCI-H226 lung = tested on: NCI-H226 lung
A549 NSCLC = tested on: A549 NSCLC
SNB-19 CNS = tested on: SNB-19 CNS
HOP-92 NSCLC = tested on: HOP-92 NSCLC
UO-31 renal = tested on: UO-31 renal
SF-268 CNS = tested on: SF-268 CNS
OVCAR-5 ovarian = tested on: OVCAR-5 ovarian

SMILES	GI50 (CCRF-CEM leukemia)	TGI (CCRF-CEM leukemia)	GI50 (CAKI-1 renal)	TGI (CAKI-1 renal)	GI50 (EKVX NSCLC)	TGI (EKVX NSCLC)	GI50 (NCI-H226 lung)	TGI (NCI-H226 lung)	GI50 (A549 NSCLC)	TGI (A549 NSCLC)	GI50 (SNB-19 CNS)	TGI (SNB-19 CNS)	GI50 (HOP-92 NSCLC)	TGI (HOP-92 NSCLC)	GI50 (UO-31 renal)	TGI (UO-31 renal)	GI50 (SF-268 CNS)	TGI (SF-268 CNS)	GI50 (OVCAR-5 ovarian)	TGI (OVCAR-5 ovarian)
COC(=O)[C@H](C[C@H](Cc1ccccc1)NC(=O)c1csc([C@@H](C[C@H](C(C)C)N(C)C(=O)[C@@H](NC(=O)[C@H]2CCCCN2C)C(C)C)OC(C)=O)n1)NC(=O)OCc1ccccc1	< 0.0009 µM	> 9 µM	0.00168 µM	> 9 µM	0.00843 µM	> 9 µM	0.00144 µM	0.0799 µM	0.00156 µM	> 9 µM	< 0.0009 µM	> 9 µM	0.00163 µM	> 9 µM	0.0111 µM	> 9 µM	0.000974 µM	> 9 µM	0.0046 µM	> 9 µM
COc1ccc(-c2n/c(=C\c3c(O)[nH]c4ccc(OC)cc34)cc3c2=Nc2ccccc2-3)cc1	–	–	8.32 µM	45 µM	21.2 µM	72.9 µM	–	–	3.43 µM	66.2 µM	3.88 µM	> 100 µM	13.8 µM	36.1 µM	18 µM	56.1 µM	–	–	44.5 µM	> 100 µM
COc1ccc2nc(-c3cccs3)cc(C(O)CN3CCSCC3)c2c1 (stereo unspecified)	–	44.9 µM	–	> 100 µM	–	97.1 µM	–	–	–	> 100 µM	–	> 100 µM	–	62.1 µM	–	60.8 µM	–	> 100 µM	–	59.8 µM
COc1cc(C(=O)C/C(CCCC(=O)Nc2ccccc2[N+](=O)[O-])=N/NC(=O)c2cc3ccccc3cc2O)ccc1O	–	> 31.6 µM	–	> 100 µM	–	> 84.7 µM	–	> 100 µM	–	> 100 µM	–	> 100 µM	–	> 100 µM	–	> 100 µM	–	> 100 µM	–	> 100 µM
COc1ccc2c(c1)cn1c3ccc(O)cc3nc(N)c21	0.163 µM	> 50.9 µM	0.246 µM	4.39 µM	1.51 µM	18.5 µM	0.597 µM	23.2 µM	0.174 µM	4.22 µM	0.357 µM	25 µM	1.06 µM	> 37 µM	0.148 µM	10.3 µM	0.238 µM	7.24 µM	1.57 µM	18.3 µM
CC1=C(C)C(=O)c2c(cc3ccccn23)C1=O	–	> 100 µM	–	–	–	46.4 µM	–	58.5 µM	–	43.1 µM	–	28.6 µM	–	–	–	65.1 µM	–	52.8 µM	–	92.6 µM
CC1=C(Oc2ccccc2)C(CCC(=O)O)c2c(O)cc(Cl)c(O)c21 (stereo unspecified)	–	> 100 µM	–	> 100 µM	–	> 100 µM	–	–	–	> 100 µM	–	> 100 µM	–	> 100 µM	–	> 100 µM	–	> 100 µM	–	–
C[C@@H]1C[C@H]2CC[C@H](O2)[C@H](C)C(=O)O[C@@H](C)C[C@@H]2CC[C@@H](O2)[C@@H](C)C(=O)O[C@H](C)C[C@H]2CC[C@H](O2)[C@H](C)C(=O)O[C@@H](C)C[C@@H]2CC[C@@H](O2)[C@@H](C)C(=O)O1	–	16.2 µM	–	12.8 µM	–	> 100 µM	–	> 93.5 µM	–	> 100 µM	–	> 100 µM	–	0.524 µM	–	–	–	> 51.4 µM	–	> 100 µM
CSc1ccc(C2OC(=O)c3ccccc32)c2ccccc12 (stereo unspecified)	–	> 100 µM	–	> 100 µM	–	> 100 µM	–	–	–	> 100 µM	–	> 100 µM	–	> 100 µM	–	> 100 µM	–	> 100 µM	–	> 100 µM
CCN(CC)c1ccc(C(=O)c2ccccc2C(=O)O)c(O)c1	–	> 100 µM	–	> 100 µM	–	> 100 µM	–	–	–	> 100 µM	–	> 100 µM	–	> 100 µM	–	> 100 µM	–	> 100 µM	–	> 100 µM
O=C1CC(c2ccc(O)cc2)C2(O1)C(=O)OC(C(O)CO)C2O (stereo unspecified)	–	> 100 µM	–	> 100 µM	–	> 100 µM	–	> 100 µM	–	–	–	> 100 µM	–	–	–	> 100 µM	–	> 100 µM	–	> 100 µM
COc1ccc(OC)c(/C=C2\SC(=S)NC2=O)c1	42.4 µM	> 100 µM	21.9 µM	61.4 µM	14.2 µM	42.1 µM	–	–	26 µM	89.9 µM	79.8 µM	> 100 µM	16 µM	55.4 µM	33.6 µM	> 100 µM	31.4 µM	> 100 µM	26.7 µM	> 100 µM
CC(C)[C@H]1CO[C@]2(C)[C@@H]3CN(Cc4ccccc4)C[C@@H]3C(=O)N12	–	> 100 µM	–	> 100 µM	–	> 100 µM	–	> 100 µM	–	> 100 µM	–	> 100 µM	–	> 100 µM	–	> 100 µM	–	> 100 µM	–	–
C1C[OH+]CC[OH+]CCNCC[OH+]CC[OH+]CCN1.N.[Cl-].[Pt+4]	0.62 µM	> 100 µM	7.5 µM	37.8 µM	–	–	23 µM	77.4 µM	15.4 µM	> 100 µM	7.22 µM	62.6 µM	16.1 µM	58.3 µM	12.2 µM	32 µM	1.99 µM	14.5 µM	–	–
COc1ccc(/C=C2\CCCC3=C2N=C2SC(C)=NN2C3c2ccc(OC)c(OC)c2)cc1OC (stereo unspecified)	2.91 µM	> 100 µM	4.82 µM	> 100 µM	–	–	13.3 µM	79.4 µM	31.8 µM	> 100 µM	39.2 µM	> 100 µM	10.6 µM	52 µM	5.99 µM	43.9 µM	18.2 µM	> 100 µM	36 µM	> 100 µM
Cc1cc(N(CCCl)CCCl)ccc1C=Nc1ccc(-c2csc(Cc3ccccc3)n2)cc1	3.01 µM	> 86.3 µM	2.18 µM	30.5 µM	–	–	0.596 µM	21.3 µM	5.41 µM	> 62.4 µM	16.8 µM	> 100 µM	1.53 µM	12.3 µM	2.61 µM	26.8 µM	7.03 µM	> 85.4 µM	8.91 µM	> 67.1 µM
Nc1ccn(CCNCCn2cnc3nc(N)[nH]c(=O)c32)c(=O)n1	–	–	–	–	–	> 100 µM	–	> 100 µM	–	> 100 µM	–	> 100 µM	–	> 100 µM	–	> 100 µM	–	> 100 µM	–	> 100 µM
